Molecules are shown by their SMILES.

Assay [1] concerns intracellular T. cruzi Silvio X10/7 A1 amastigotes. Description: Intracellular T. cruzi assay. It counts as cell-based. To be noted: Trypanosoma cruzi; 96 h compound treatment, Vero host cells; given as [mean pEC50, SD, N]; read-out: Mean pEC50 against intracellular T. cruzi parasites (converted). On the procedure:
Potency against intracellular T. cruzi Silvio X10/7 A1 amastigotes was determined as described previously ([53]), with a sole modification that the compound treatment duration was 96 h instead of 72 h. Vero host cells were obtained from The European Collection of Authenticated Cell Cultures (cat. number 84113001) and tested for mycoplasma (negative). T. cruzi Silvio X10/7 A1 was obtained from Prof. Alan Fairlamb, and discrete typing unit confirmed by genotyping ([53]).

Assay [2] addresses native T. cruzi proteasome (trypsin-like activity, β2) (Trypanosoma cruzi, UniProt V5BCU3). In words: Trypsin-like activity assay (Proteasome-Glo), native T. cruzi proteasome. To be noted: mean ± SD, N = 3; read-out: pIC50, Trypsin Assay, Native (converted). It counts as biochemical. How it is done:
(§1) Chymotrypsin-, trypsin-, and caspase-like activity assays were performed using a commercially available Proteasome-Glo 3-substrate system assay kit (catalog number G8532) (Promega Corporation) according to the manufacturers protocols and as previously described ([24]).
(§2) Prior to running assays, Proteasome-Glo buffer was used to reconstitute the luciferin detection reagent (containing a recombinant thermostable luciferase enzyme). The resuspended luciferin detection reagent was then mixed with Proteasome-Glo chymotrypsin-, trypsin- or caspase-like substrates (either 40 μM suc-Leu-Leu-Val-Tyr-aminoluciferin, 30 μM Z-Leu-Arg-Arg-aminoluciferin (Z is benzyloxycarbonyl) or 40 μM Z-Nle-Pro-Nle-Asp-aminoluciferin respectively (these concentrations represent 2x final assay concentrations)). These substrate mixtures were allowed to incubate at room temperature for 60 min prior to use to allow the removal of any contaminating free aminoluciferin.
(§3) When proteasome inhibitors were to be screened in the chymotrypsin, trypsin, and caspase assays, test compounds were dispensed into assay wells using an ECHO 550 acoustic dispenser (Labcyte) (final DMSO concentration 1%). Compounds were tested in either a 10-point concentration series (30 μM top final assay concentration, 1 in 3 dilution series) or a 12-point concentration series (30 μM top final assay concentration, 1 in 2.5 dilution series).
(§4) Proteasome assays were then performed as described above using Promega Proteasome-Glo 3-substrate system assay kit. […] Diluted proteasome (4 μl) was added to assay plates using an electronic multichannel pipette (Integra Biosciences Ltd) and the proteasome incubated with compound for 60 min at room temperature.
(§5) Following the 60 min incubation of proteasome and compounds, assays were initiated with the addition of 4 μl of a substrate mix (containing substrate and the luciferin detection reagent) using an electronic multichannel pipette. Final assay concentrations of substrates used were either 20 μM Suc-Leu-Leu-Val-Tyr-aminoluciferin, 15 μM Z-Leu-Arg-Arg-aminoluciferin, or 20 μM Z-Nle-Pro-Nle-Asp-aminoluciferin for chymotrypsin-, trypsin-, or caspase-like activity, respectively. Following a further 60 min assay incubation, luminescence was read using an EnVision 2102 Multilabel Reader (PerkinElmer, Inc) with 0.2 s per well reading time.
(§6) All data processing was performed using Microsoft Excel for Microsoft 365 software.
(§7) Nonlinear dose-response curve fitting was carried out using the Microsoft Excel add-in, XLfit (IDBS). Percentage inhibition data were either fitted to a standard 4-parameter logistic fit model (XLfit model 205; Equation 2) or a biphasic model (either XLfit model 300; Equation 3 or a custom biphasic model; Equation 4 (used in cases where the top and/or bottom parameters deviated from 100%/0% inhibition)).(2) y=A+(B−A)/1+(C/x)^D Where A = % inhibition at bottom, B = % inhibition at top, C = IC50, D = slope, x = inhibitor concentration and y = % inhibition.(3) y=(A/(1+10^(C−log(x))∗B))+((100−A)/(1+10^(D−log(x))∗B)) With A = % inhibition at midplateau, B = slope, C = log(IC50^A), D = log(IC50^B)).
(§8) All IC50 data generated were converted to pIC50 using Equation 5.

For assay [3], the target named is recombinant β4^R mutant T. cruzi proteasome (trypsin-like activity) (Trypanosoma cruzi, UniProt V5BCU3). It counts as biochemical. The following applies: for pIC50, Trypsin Assay, β4^R mutant: mean ± SD, N = 3. How it is done: Point mutations were created in individual subunits using overlapping PCR from the original templates using Polh and Tn7L primers outside the genes and suitable internal primers to introduce selected mutations. For Δβ1Δβ2, β1 Thr 55, and β2 Thr 67 were both mutated to Ala, the β4^R mutant was produced by mutating Phe 24 and Ile 29 to Leu and Met respectively in β4 subunit.
as §1, §2
Proteasome assays were carried out using 384-well, white, low-volume plates (catalog number 784904) (Greiner Bio-One) at room temperature (∼23 °C) in 8 μl reaction volumes. When activity checks were to be run in the presence or absence of a fixed concentration of proteasome inhibitor, 80 nL of the inhibitor (at a concentration 100x the required final assay concentration), or 80 nL dimethylsulfoxide (DMSO), were dispensed into assay plates using an Echo 550 acoustic dispenser (Labcyte).
A 1 in 2 dilution series of the various T. cruzi proteasome samples (native, recombinant WT, β4^R mutant, and Δβ1Δβ2 mutant) were produced in assay buffer (50 mM Tris–HCl, pH 7.5, 10 mM sucrose, 5 mM MgCl2, 1 mM DTT, 2 mM ATP, 150 mM NaCl, 1 mM EDTA, and 0.05 mg/ml bovine serum albumin). Subsequently, 4 μl of the various concentrations of diluted proteasome were added to assay plates using an electronic multichannel pipette (Integra Biosciences Ltd). When kinetic read activity checks were performed (Fig. 2), proteasome final assay concentrations used were 115 μg/ml, 115 μg/ml, and 230 μg/ml native proteasome (in the chymotrypsin, trypsin, and caspase assays, respectively), and 4.1 μg/ml, 3.4 μg/ml, or 1.4 μg/ml recombinant WT proteasome (in the chymotrypsin, trypsin, and caspase assays, respectively). When activity checks were to be run in the presence or absence of a proteasome inhibitor plates containing inhibitor or DMSO control were incubated with the relevant proteasome sample for 60 min at room temperature (this step was not included in activity check experiments where compounds were not used).
Following the 60 min incubation of proteasome and compound (if required), assays were initiated with the addition of 4 μl of substrate mix (containing substrate and the luciferin detection reagent) using an electronic multichannel pipette. Final assay concentrations of substrates used were either 20 μM Suc-Leu-Leu-Val-Tyr-aminoluciferin, 15 μM Z-Leu-Arg-Arg-aminoluciferin, or 20 μM Z-Nle-Pro-Nle-Asp-aminoluciferin for chymotrypsin-, trypsin- or caspase-like activity respectively.
Luminescence was read either kinetically or as an endpoint read using an EnVision 2102 Multilabel Reader (PerkinElmer, Inc) with 0.2 s per well reading time. When kinetic assays were run, luminescence was read every 5 min for 90 min. Endpoint assays were run for 60 min before luminescence was read. All data processing and linear fit analyses were performed using Microsoft Excel for Microsoft 365 software (Redmond, Washington; https://www.microsoft.com/).

Assay [4] concerns the target recombinant WT T. cruzi proteasome (trypsin-like activity, β2) (Trypanosoma cruzi, UniProt V5BCU3). Description: biochemical. The following applies: for IC50: mean ± SD, N = 3, read-out: pIC50, Trypsin Assay, Wild-type (converted). It counts as biochemical. How it is done:
as §1, §2, §3, §4, §5, §6, §7, §8

With `O=C(Nc1ccc(F)c(-c2cn3nc(-c4ccccc4)cnc3n2)c1)N1CCCC1` [DDD01012248], the EC50 in assay [1] is 0.02 µM. Moreover, the IC50 in assay [2] and in assay [4] was greater than 30.2 µM each time. For the same compound, the “inhibition of trypsin activity, β4^R mutant, fixed concentration” value in assay [3] (1 μM compound (Fig. S4)) is “did not inhibit”. Further, the “pIC50, Trypsin Assay, β4^R mutant” value in assay [3] is listed as less than 4.52.

As to `O=C(Nc1ccc(F)c(C(=O)NC2CC2)c1)c1ccc(COc2ccccc2)o1` [DDD02091966, N-(3-(cyclopropylcarbamoyl)-4-fluorophenyl)-5-(phenoxymethyl)furan-2-carboxamide], in assay [1], the EC50 was 0.251 µM. Moreover, the IC50 in assay [2] and in assay [4] was greater than 30.2 µM each time. In assay [3], the “pIC50, Trypsin Assay, β4^R mutant” value is reported as less than 4.52. Further, the “inhibition of the trypsin activity” value in assay [4] (native and recombinant T. cruzi proteasomes) was “no inhibition”.
